Consider 2 compounds from US20030220329A1, “Method of improving beta-adrenergic receptor function” (DUKE UNIVERSITY, priority 1999, published 2003).

The subject of test [1] is glucose transport into white adipose tissue and muscle. The test can be described thus: Glucose transport into adipose and muscle tissues (14C 2-deoxyglucose accumulation). The format is in vivo, B6 mice. To be noted: compared to HF control group. The protocol: (§1) Animals and Diets. Seventy-five 4-week old B6 male mice were obtained from Jackson Laboratories (Bar Harbor, Me.). The animals were housed 5 per cage in a temperature controlled (22° C.) room with a 12 hour light/dark cycle (lights off at 19:00). The HF and low fat (LF) experimental diets were manufactured by Research Diets (New Brunswick, N.J.), and contain 58% and 11% of calories from fat, respectively. The composition of these diets have been described in detail elsewhere (Surwit et al. Metabolism 44:645-651 (1995)). A group of 60 mice were fed the HF diet for the first four weeks of the study; the remaining 15 mice were fed the LF diet. The mice assigned to the LF diet were maintained on this diet throughout the study as a reference group of lean control mice. At week 4, all HF-fed mice were assigned to 4 groups of 15 mice each. The first group remained on the HF diet throughout the study as the “obese” control group. The remaining 3 groups of mice were fed the HF diet containing either the β3AR agonist CL316,243 (CL), diazoxide (Dz) or the combination of the two compounds (CLDz). The CL concentration in the diets was 1 mg/kg (0.001%). This dose had originally been recommended by Dr. Thomas Claus, of Lederle Laboratories and found to be differentially effective in reducing obesity in obesity-prone B6 and obesity-resistant A/J mice (Collins et al, Obes. Res. 43:83-86 5:6S (1997)). The Dz concentration in the diets was 3.2 g/kg (0.32%) was determined to be the maximally effective dose for weight-reduction in dose-response pilot studies.
Glucose Transport. Basal glucose transport into white adipose tissue and muscle was assessed following the method of Skillman and Fletcher (Skillman et al, Exp. Clin. Endocrinol. 87:288-298 (1986)) with minor modifications. Five mice from each group were injected i.p. with 50 mg/kg 2-deoxyglucose (20 μCi/kg ^14C 2-deoxyglucose) mixed with 2-deoxyglucose (final specific activity was 66 μCi/mmole). Twenty minutes later the mice were killed by cervical dislocation. […] The samples were neutralized with 1 M HCl and the ^14C content determined.

Test [2] in a line: Postprandial plasma triglycerides and non-esterified fatty acids. To be noted: at termination of the study, HF diet + drug for 4 weeks. Type of test: in vivo, B6 mice. The protocol: Animals and Diets. Seventy-five 4-week old B6 male mice were obtained from Jackson Laboratories (Bar Harbor, Me.). The animals were housed 5 per cage in a temperature controlled (22° C.) room with a 12 hour light/dark cycle (lights off at 19:00). The HF and low fat (LF) experimental diets were manufactured by Research Diets (New Brunswick, N.J.), and contain 58% and 11% of calories from fat, respectively. The composition of these diets have been described in detail elsewhere (Surwit et al. Metabolism 44:645-651 (1995)). A group of 60 mice were fed the HF diet for the first four weeks of the study; the remaining 15 mice were fed the LF diet. The mice assigned to the LF diet were maintained on this diet throughout the study as a reference group of lean control mice. At week 4, all HF-fed mice were assigned to 4 groups of 15 mice each. The first group remained on the HF diet throughout the study as the “obese” control group. […] The Dz concentration in the diets was 3.2 g/kg (0.32%) was determined to be the maximally effective dose for weight-reduction in dose-response pilot studies.
Triglycerides and Non-Esterified Fatty Acids. At the termination of the study, a postprandial plasma sample was collected and analyzed for triglyceride and non-esterified fatty acid (NEFA) concentrations using kits from WAKO Diagnostics (Richmond. Va.).

The next test concerns β3AR mRNA. Nature of the test: Northern blot, β3AR mRNA in EWAT. To be noted: normalized to cyclophilin. Type of test: in vivo, B6 mice.
A short description of test [3]: Fasting plasma glucose, insulin and leptin. Type of test: in vivo, B6 mice. To be noted: for Fasting plasma glucose: termination of / throughout the study. The protocol:
as §1
Glucose, Insulin, and Leptin. Samples for analysis of insulin, glucose, and leptin were collected as previously reported (Surwit et al. Metabolism 44:645-651 (1995), Collins et al., Endocrinology 138:405-413 (1997)) at day 24 (4 days before the diets were changed), at day 32 (4 days after the change) and biweekly thereafter. In all cases, food was removed 8 hours before samples were collected. Glucose was analyzed by the glucose oxidase method (Beckman Glucose Analyzer II). Insulin and leptin concentrations were determined by double antibody radioimmunoassay (Linco Research, St. Louis. Mo.). The insulin assay was based on a rat standard and the leptin assay used a mouse standard.

The next test relates to UCP1 mRNA. The test can be described thus: Northern blot, UCP1 mRNA in IBAT and RP. Type of test: in vivo, B6 mice. To be noted: compared to the HF control.
Another test concerns the target T1, β3AR (Mus musculus, UniProt P25962).
T1 construct: from tissue
Nature of the test: β3AR-stimulated adenylyl cyclase activity in EWAT plasma membranes from treated animals. Type of test: biochemical, B6 mice. To be noted: membranes from treated HF-fed animals. The protocol:
(§2) Tissue Collection. After 4 weeks of drug treatment, a subset of 10 animals from each group was killed. The epididymal white adipose tissue (EWAT), retroperitoneal (RP) fat, interscapular brown adipose tissue (IBAT) fat pads and gastrocnemius muscle were removed, trimmed, washed, and all tissues were flash-frozen in liquid nitrogen and stored at −80° C. for later determination of β3AR, (EWAT) UCP1 expression (IBAT and RP), UCP2 and 3 expression (IBAT) as well as β3AR-stimulated adenylyl cyclase activity (EWAT).
Preparation of plasma membranes and adenylyl cyclase assay. Adipose tissue was isolated from each group of animals. The tissues from 4 mice per group were pooled and minced and then plasma membranes prepared as previously described (Collins et al, Mol. Endocrinol. 8:518-527 (1994)). Adenylyl cyclase activity was measured using established methods, and the cAMP formed was measured by RIA (Harper et al, J. Cyclic Nucleotide Res. 1:207-218 (1975)) using a polyclonal anti-serum to cAMP (Gettys et al, J. Biol. Chem. 266:15949-15955 (1991)). Protein concentrations were determined by the Bradford method (Bradford. Anal. Biochem 72:248-254 (1976)).

The nature of test [4]: Fat pad weight and estimate of percent body fat. Conditions: wet weight after 4 weeks of drug treatment. The format is in vivo, B6 mice. The protocol:
Animals and Diets. Seventy-five 4-week old B6 male mice were obtained from Jackson Laboratories (Bar Harbor, Me.). The animals were housed 5 per cage in a temperature controlled (22° C.) room with a 12 hour light/dark cycle (lights off at 19:00). The HF and low fat (LF) experimental diets were manufactured by Research Diets (New Brunswick, N.J.), and contain 58% and 11% of calories from fat, respectively. The composition of these diets have been described in detail elsewhere (Surwit et al. Metabolism 44:645-651 (1995)). A group of 60 mice were fed the HF diet for the first four weeks of the study; the remaining 15 mice were fed the LF diet. The mice assigned to the LF diet were maintained on this diet throughout the study as a reference group of lean control mice. At week 4, all HF-fed mice were assigned to 4 groups of 15 mice each. The first group remained on the HF diet throughout the study as the “obese” control group. […] This dose had originally been recommended by Dr. Thomas Claus, of Lederle Laboratories and found to be differentially effective in reducing obesity in obesity-prone B6 and obesity-resistant A/J mice (Collins et al, Obes. Res. 43:83-86 5:6S (1997)). The Dz concentration in the diets was 3.2 g/kg (0.32%) was determined to be the maximally effective dose for weight-reduction in dose-response pilot studies. Tissue Collection. After 4 weeks of drug treatment, a subset of 10 animals from each group was killed. […] Percent Body Fat. The percent body fat was estimated from the weight of the epididymal fat pad. It has been shown that, as a proportion of total body weight, the epididymal fat pad weight is highly correlated with percent body fat (Rogers et al, Brit. J. Nutr. 43:83-86 (1980), Eisen et al, Growth 45:100-107 (1981)).

In a further test the test system is UCP3. The test can be described thus: UCP3 expression in IBAT. Type of test: in vivo. Conditions: HF-fed B6 mice. The protocol: as §2
Isolation and Analysis of RNA. Total cellular RNA was prepared using the tissues of 6 mice per group by the cesium chloride gradient method as detailed (Chirgwin et al, Biochemistry 18:5294-5399 (1979)). For Northern blot hybridization, RNA was denatured by the glyoxal procedure, fractionated through 1.2% agarose gels, and blotted onto Biotrans (ICN) nylon membranes (Collins et al, J. Biol. Chem. 263:9067-9070 (1988)). […] A rat cDNA probe for cyclophilin was used as an internal hybridization/quantitation standard. Blots were hybridized and washed as previously described (Collins et al, Mol. Endocrinol. 8:518-527 (1994), (Thomas. Proc. Natl. Acad. Sci. USA 77:5201-5205 (1980)). The intensity of hybridization signals was quantified by PhosphorImager (ImageQuant/Storm) and normalized to the values for cyclophilin.

Marks after values point to notes of the source that are not given here.

T1 sequence (P25962 whole entry): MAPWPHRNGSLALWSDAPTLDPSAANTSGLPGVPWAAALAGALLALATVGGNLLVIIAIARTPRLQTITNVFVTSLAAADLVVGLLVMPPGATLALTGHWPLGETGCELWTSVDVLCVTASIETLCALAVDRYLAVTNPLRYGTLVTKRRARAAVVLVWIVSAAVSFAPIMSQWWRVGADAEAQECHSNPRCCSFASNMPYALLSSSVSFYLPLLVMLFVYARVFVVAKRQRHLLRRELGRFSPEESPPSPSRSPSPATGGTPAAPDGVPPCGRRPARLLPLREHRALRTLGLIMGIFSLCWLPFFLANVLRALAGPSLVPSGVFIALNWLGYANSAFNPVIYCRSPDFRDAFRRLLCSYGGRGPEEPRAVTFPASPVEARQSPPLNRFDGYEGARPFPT

With `C[C@H](Cc1ccc2c(c1)OC(C(=O)[O-])(C(=O)[O-])O2)NC[C@H](O)c1cccc(Cl)c1.[Na+].[Na+]` [CL, disodium (R,R)-5-[2[[2-(3-chlorophenyl)-2-hydroxyethyl]-amino]propyl]-1,3-benzodioxole-2,2-dicarboxylate], in test [1], the “Glucose transport into EWAT” value was “improved glucose transport into EWAT”. Besides, the “Glucose transport into RP” value in test [1] (ANOVA trend p=0.07) is “enhanced glucose transport”. In addition, in test [2], the NEFA is given as 0.69 +/− 0.04^b mEq/L. In the test with β3AR mRNA, the “β3AR mRNA levels in EWAT” value was “failed to restore β3AR expression or function”. Further, in test [3] (compared to pretreatment), the Fasting plasma glucose entry is given as “returned to the pretreatment values”. Moreover, the “UCP1 mRNA levels in IBAT” value in the test with UCP1 mRNA is on record as “greater increase in UCP1 expression”. Also, the “Adenylyl cyclase activity in response to CL in EWAT plasma membranes” value at β3AR is listed as “a general decrease in adenylyl cyclase activity”. In addition, in test [4], the “Epididymal Fat Pad Weight” value is reported as 0.943 +/− 0.129^b grams and the “Retroperitoneal Fat Pad Weight” value is 0.200 +/− 0.024^b grams.

`CC1=NS(=O)(=O)c2cc(Cl)ccc2N1` [Dz, diazoxide]: in test [1], the “Glucose transport into EWAT” value was “did not reach a statistically significant level”. Moreover, the “UCP3 expression in IBAT” value in the test with UCP3 is listed as “significant increase in UCP3 expression in IBAT”. Besides, the NEFA in test [2] is given as 0.82 +/− 0.08^b mEq/L. Further, the “β3AR mRNA levels in EWAT” value with β3AR mRNA is reported as “levels comparable to the LF fed controls”. For the same compound, the Fasting plasma insulin entry in test [3] (end of / throughout the study, compared to pretreatment) was “remained significantly below pretreatment levels throughout the study”. In addition, the Leptin in test [3] (plasma, at the conclusion of the study, HF diet + drug for 4 weeks) was 4.2 +/− 0.8^c ng/ml. Moreover, the Fasting plasma glucose result in test [3] (compared to pretreatment) is on record as “remained lower than pretreatment levels throughout the study”. For the same compound, the “UCP1 mRNA levels in IBAT” value in the test on UCP1 mRNA was “greater increase in UCP1 expression”. In addition, the “Adenylyl cyclase activity in response to CL in EWAT plasma membranes” value on β3AR is on record as “restored the efficacy of the β3AR to stimulate adenylyl cyclase”. Further, in test [4], the “Epididymal Fat Pad Weight” value is reported as 0.691 +/− 0.083^b,c grams and the “Retroperitoneal Fat Pad Weight” value is 0.123 +/− 0.014^b,c grams.
